Experimental data as given in patent US6403831B1, “Substituted benzylidene indenyl formamides, acetamides and propionamides” (Cell Pathways, Inc., priority 1996, dated 2002).
Marks after values point to notes of the source that are not given here.

What was measured:
[1] = tested on: SW-480 colon adenocarcinoma cells; experiment: Apoptosis by DNA fragmentation (Cell Death Detection ELISA plus); type: cell-based, human; details: SW-480 cells, 48 hrs; for EC50: by software or estimated from effective concentration range; for DNA Fragmentation FS (100 μM): fold stimulation FS=ODmax/ODveh
Description: Apoptosis was also measured based on the amount of fragmented DNA contained in cell lysates. Briefly, SW-480 colon adenocarcinoma cells were plated in 96-well microtitre plates (“MTP”) at a density of 10K cells/well in 180 μl and incubated for 24 hrs. Cells were then treated with 20 μl aliquots of appropriately diluted compound, and allowed to incubate for an additional 48 hrs.
After the incubation, samples were prepared according to the following steps. The MTP was centrifuged (15 min., 1000 rpm) and the supernatant was carefully removed by fast inversion of the MTP. The cell pellents in each well were then resuspended in ^200 μl lysis buffer and incubated for 45 min. at room temperature to lyse the cells. The lysates were then centrifuged (15 min., 1000 rpm) and 20 μl aliquots of the supernatant (=cytoplasmic fraction) were transferred into the streptavidin coated MTP for analysis. Care was taken not to shake the lysed pellets in the MTP (=cell nucleii containing high molecular weight, unfragmented DNA). Samples were analyzed immediately, because storage at 4 C or −20 C reduces the ELISA-signals.
Samples were then processed according to a DNA fragmentation assay protocol, and dose-response curves were generated based on optical density readings. Quantification of DNA was done by a commercially available photometric enzyme-immunoassay manufactured by Mannheim-Boehringer under the name “Cell Death Detection ELISA^plus”. The assay is based on a quantitative sandwich-enzyme-immunoassay-principle using mouse monoclonal antibodies directed against DNA and histones, respectively. This allows the specific determination of mono and oligonucleosomes in the cytoplasmatic fraction of cell lysates. In brief, the assay procedure is as follows. The sample (cell-lysate, serum, culture-supernatant etc.) is placed into a streptavidin-coated MTP. Subsequently, a mixture of anti-histone-biotin and anti-DNA-POD are added and incubated for 2 hours. During the incubation period, the anti-histone antibody binds to the histone-component of the nucleosomes and simultaneously fixes the immunocomplex to the streptavidin-coated MTP via its biotinylation. Additionally, the anti-DNA-POD antibody reacts with the DNA component of the nucleosomes. After removal of unbound antibodies by a washing step, the amount of nucleosomes is quantified by the POD retained in the immunocomplex. POD is determined photometrically with ABTS® (2,2′-Azino-di[3-ethylbenzthiazolin-sulfonat])* as substrate.
Fold stimulation (FS=ODmax/ODveh), an indicator of apoptotic response, was determined for each compound tested. EC50 values were determined either specifically by data analysis software, or by estimates based on the effective concentration range of each compound (ECR=min. effective dose-min. dose to peak effect). These FS and EC50 values for the tested compounds are listed above in Table 6.

[2] = tested on: HT-29 human colon carcinoma cells; experiment: Apoptosis by morphology (acridine orange/ethidium bromide, condensed chromatin); type: cell-based; details: HT-29 cells
Description: Apoptosis was measured using an assay of cell death based on morphological characteristics of apoptotic cells (i.e., condensed chromatin). Drug preparation and cell culture conditions were the same as for the SRB assay described above, except that HT-29 human colon carcinoma cells were employed/Confluent cultures were established in 12.5 cm^2 flasks by plating 0.5×10^6 cells/flask. The cultures were assayed for apoptosis by fluorescent microscopy following labeling with acridine orange and ethidium bromide. Floating and attached cells were collected by trypsinization and washed three times in PBS. One ml aliquots were centrifuged (3 g). The pellet was resuspended in 25 μl media and 1 μl of a dye mixture containing 100 μg/ml acridine orange and 100 μg/ml ethidium bromide prepared in PBS and mixed gently. Ten μl of mixture was placed on a microscope slide and covered with a 22 mm^2 coverslip and examined under 40×dry objectives using epillumination and filter combination.
An observer blinded to the identity of the treatments scored at least 100 cells per sample. Apoptotic cells were identified by nuclear condensation of chromatin stained by the acridine orange or ethidium bromide.

[3] = tested on: human colon carcinoma cell line, SW-480; experiment: Growth inhibition, Sulforhodamine B (SRB) protein binding assay; type: cell-based; details: SW-480 cell line, six days continuous exposure
Description: These compounds were assayed for their growth inhibitory activity on the human colon carcinoma cell line, SW-480 obtained from ATCC (Rockville, Md.), to ascertain the degree of growth inhibition. Growth inhibition of this cell line is indicative of a benefit on precancerous lesions and neoplasms. The cell line and growth assay employed for these experiments are well characterized, and are used to evaluate the anti-neoplastic properties of NSAIDs. The assay is used by the United States National Cancer Institute in its screening program for new anti-cancer drugs.
Drug stock solutions were made in 100% DMSO then diluted with RPMI media for cell culture testing. All drug solutions were prepared fresh on the day of testing. The cultured cells were obtained at passage #99 and grown in RPMI media supplemented with 5% fetal calf serum, and 2 mM glutamine, 100 U/ml penicillin, 100 U/ml streptomycin, and 0.25 μg/ml amphotericin. The cultures were maintained in a humidified atmosphere of 95% air and 5% CO2 at 37° C. The cultures were passaged at preconfluent densities using a solution of 0.05% trypsin and 0.53 mM EDTA. Cells were plated at 1000 cells/well for 96 well flat-bottom microtiter plates.
Tumor cell growth inhibition was assessed using the Sulforhodamine B (SRB) protein binding assay. In this assay, tumor cells were plated in 96-well plates and treated with drug-containing media for six days (continuous exposure). For each plate, 6 wells were designated as no treatment controls, six wells as vehicle (0.1% DMSO) controls, and the remaining wells for drug dilutions with three wells per drug concentration. At the end of the exposure period, the cells were fixed and stained with sulforhodamine B, a protein binding dye. The dye was then solubilized, and the optical density of the resulting solution was determined on a 96-well plate reader. The mean dye intensity of the treated wells was then divided by the mean dye intensity in the control wells (6 wells of each) to determine the effect of the drug on the cells. Dye intensity is proportional to the number of cells or amount of protein per well. The resultant “percent inhibition” value then represents the degree of growth inhibition caused by the drug.
For each experiment, an IC50 value was determined and used for comparative purposes. This value is equivalent to the concentration of drug needed to inhibit tumor cell growth by 50%. IC50 values were obtained graphically by connecting the mean values for each drug concentration tested. Each experiment included at least three wells per drug concentration. Concentration was plotted on a log scale on the X-axis.

COX I = target: T1, COX I (Ovis aries, UniProt P05979); experiment: Cyclooxygenase (COX) inhibition, purified COX; type: biochemical; details: purified COX from ram seminal vesicles; for COX I % Inhibition (values marked *): values marked *: 1000 μM test compound; for COX I % Inhibition (100 μM): 100 μM test compound, arachidonic acid 100 μM
T1 construct: The COX was purified form ram seminal vesicles; from tissue; host or cells: ram seminal vesicles
T1 sequence (P05979 25-600): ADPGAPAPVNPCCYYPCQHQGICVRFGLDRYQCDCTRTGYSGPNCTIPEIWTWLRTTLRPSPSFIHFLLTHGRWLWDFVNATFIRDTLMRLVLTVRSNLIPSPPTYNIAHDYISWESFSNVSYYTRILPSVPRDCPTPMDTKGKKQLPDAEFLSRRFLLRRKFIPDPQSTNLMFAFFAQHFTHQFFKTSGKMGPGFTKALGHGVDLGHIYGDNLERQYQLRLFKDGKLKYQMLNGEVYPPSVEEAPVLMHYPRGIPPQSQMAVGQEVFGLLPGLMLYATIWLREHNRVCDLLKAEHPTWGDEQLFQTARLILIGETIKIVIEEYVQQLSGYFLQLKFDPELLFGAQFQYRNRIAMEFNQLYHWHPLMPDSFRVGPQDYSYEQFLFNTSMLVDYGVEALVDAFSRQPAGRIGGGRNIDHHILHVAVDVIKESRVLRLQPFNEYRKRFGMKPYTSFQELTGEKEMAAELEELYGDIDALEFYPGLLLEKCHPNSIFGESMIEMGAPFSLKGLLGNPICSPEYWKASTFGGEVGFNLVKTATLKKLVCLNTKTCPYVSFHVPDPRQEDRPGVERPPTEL
Description: Compounds of this invention, as well as a positive control, sulindac sulfide were to determine whether they inhibited the production of cyclooxygenase (see Table 5 below).
COX catalyzes the formation of prostaglandins and thromboxane by the oxidative metabolism of arachidonic acid. The compounds of this invention were evaluated for inhibitory effects on purified COX. The COX was purified form ram seminal vesicles, as described by Boopathy, R. and Balasubramanian, J. 239:371-377, 1988. COX activity was assayed as described by Evans, A. T., et al., “Actions of cannabis constituents on enzymes of arachidonate metabolism anti-flammatory potential,” Biochem. Pharmacol., 36:2035-2037, 1987. Briefly, purified COX was incubated with arachidonic acid (100 μM) for 2.0 min at 37° C. in the presence or absence of test compounds. The assay was terminated buy the addition of TCA, and COX activity was determined by absorbance at 530 nm.

Row | SMILES | EC50 [1] | DNA Fragmentation FS (100 μM) [1] | Morphology % Apoptotic Cells (1 μM) [2] | IC50 [3] | COX I % Inhibition (values marked *) (COX I) | COX I % Inhibition (100 μM) (COX I)
1 | COc1cc(/C=C2/C(C)=C(CC(=O)N(CCC#N)Cc3ccccc3)c3cc(F)ccc32)cc(OC)c1OC [Example 37, (Z)-5-fluoro-2-methyl-1-(3,4,5-trimethoxybenzylidene)-3-(N-benzyl-N-(2-cyanoethyl))-indenylacetamide] | > 10 µM | 2.5 | <20% | > 10 µM | 38* % | –
2 | COc1cc(/C=C2/C(C)=C(CC(=O)NCCc3ccccc3)c3cc(F)ccc32)cc(OC)c1OC [Example 39, (Z)-5-fluoro-2-methyl-1-(3,4,5-trimethoxybenzylidene)-3-(N-2-phenylethyl)-indenylacetamide] | > 10 µM | 2 | 31% | > 10 µM | 59* % | –
3 | COc1cc(/C=C2/C(C)=C(CC(=O)NCCCc3ccccc3)c3cc(F)ccc32)cc(OC)c1OC [Example 40, (Z)-5-fluoro-2-methyl-1-(3,4,5-trimethoxybenzylidene)-3-(N-3-phenylpropyl)-indenylacetamide] | > 10 µM | <2 | <20% | > 10 µM | 34* % | –
4 | COc1cc(/C=C2/C(C)=C(CC(=O)NCc3ccccn3)c3cc(F)ccc32)cc(OC)c1OC [Example 48] | 0.5 µM | 2.5 | 63% | 0.5 µM | – | <25%
5 | COc1cc(/C=C2/C(C)=C(CC(=O)N[C@H](O)Cc3ccccc3)c3cc(F)ccc32)cc(OC)c1OC [Example 45, (Z)-5-fluoro-2-methyl-1-(3,4,5-trimethoxybenzylidene)-3-(N-(R)-1-hydroxy-2-phenylethyl)-idenylacetamide] | > 10 µM | 3.4 | 40% | > 10 µM | 56* % | –
6 | COc1cc(/C=C2/C(C)=C(CC(=O)Nc3ccccc3)c3cc(F)ccc32)cc(OC)c1OC [Example 22, (Z)-5-fluoro-2-methyl-1-(3,4,5-trimethoxybenzylidene)-3-(N-phenyl)-indenylacetamide] | 5 µM | 2.3 | 37% | 4.5 µM | – | <25%
7 | COc1cc(/C=C2/C(C)=C(CC(=O)NCc3ccccc3)c3cc(F)ccc32)cc(OC)c1OC [Example 1, (Z)-5-fluoro-2-methyl-1-(3,4,5-trimethoxybenzylidene)-3-(N-Benzyl)-indenylacetamide] | 0.05 µM | 4.6 | 73% | 0.04 µM | – | <25%
8 | COc1ccc(/C=C2/C(C)=C(CC(=O)NCc3ccccc3)c3cc(F)ccc32)c(OC)c1OC [Example 57, (Z)-5-fluoro-2-methyl-1-(2,3,4-trimethoxybenzylidene)-3-(N-benzyl)-indenylacetamide] | 0.3 µM | <2 | 73% | 0.26 µM | – | <25%
9 | C#CCNC(=O)CC1=C(C)/C(=C/c2cc(OC)c(OC)c(OC)c2)c2ccc(F)cc21 [Example 27, (Z)-5-fluoro-2-methyl-1-(3,4,5-trimethoxybenzylidene)-3-(N-propargyl)-indenylacetamide] | 0.7 µM | 4 | 71% | 0.22 µM | – | <25%
10 | COc1cc(/C=C2/C(C)=C(CC(=O)NCc3ccccc3Cl)c3cc(F)ccc32)cc(OC)c1OC [Example 4, (Z)-5-fluoro-2-methyl-1-(3,4,5-trimethoxybenzylidene)-3-(N-2-chlorobenzyl)-indenylacetamide] | 0.25 µM | 2.4 | 68% | 0.36 µM | – | <25%
